Source: the SangsterLogP compilation

Assay: method code SF, from DOI: 10.1021/js960111p, PMID: 9002468
Details: for logD: pH 12.0

SMILES	logP	logD
Clc1ccc2[nH]ccc2c1	2.93	
Cc1ccc2[nH]c(C)cc2c1	3.02	
Cc1nccc2c3ccccc3n(C)c12		3.01
Cc1nccc2c1[nH]c1ccccc12		2.89
CC1NCCc2c1[nH]c1ccccc21 (stereo not drawn)		2.06
NCCc1c[nH]c2ccccc12		1.35
Cn1c2ccccc2c2ccccc21		3.99
CC1NCCc2c1[nH]c1ccc(Cl)cc21 (stereo not drawn)		2.3
COc1ccc2[nH]c3c(c2c1)CCNC3C (stereo not drawn)		1.15
COc1ccc2c3c([nH]c2c1)C(C)NCC3 (stereo not drawn)		1.37
c1ccc2c(c1)[nH]c1cnccc12		2.65
Oc1ccc2[nH]ccc2c1	1.29	
c1ccc2c3c([nH]c2c1)CNCC3		1.98
CC1NCCc2c1[nH]c1ccc([N+](=O)[O-])cc21 (stereo not drawn)		2.07

Further lines, with some results ahead:

logP	SMILES	logD
2.67	Cc1ccc2[nH]ccc2c1	
2.08	COc1ccc2[nH]ccc2c1	
2.55	Cn1ccc2ccccc21	
3	c1ccc2c3c([nH]c2c1)CCCC3	
